Assay results as given in patent publication US5789447A, “Nitric oxide releasing compounds as protective agents in ischemia reperfusion injury” (priority 1995, dated 1998).

How the values were obtained:
[1] = tested on: Chinese hamster V79 lung fibroblasts; experiment: V79 clonogenic survival, hypoxanthine/xanthine oxidase (HX/XO) cytotoxicity; conditions: decomposition products of DEA/NO, 1 mM
Description: Chinese hamster V79 lung fibroblasts were cultured in F12 medium supplemented with 10% fetal calf serum and antibiotics. Cell survival was assessed by clonogenic assay with 85-95% plating efficiency. Stock cultures of exponentially growing cells were trypsinized, rinsed, and plated (7×10^5 cells/dish) into a number of 100 cm^2 petri dishes and incubated 16 hr at 37° C. prior to experimental protocols.
It has been shown that exposure of V79 cells to hydrogen peroxide results in dose-dependent cytotoxicity (Mitchell et al., supra).
HX and XO were purchased from Boehringer Co. (Indianapolis, Ind.). Nitrite, diethylamine, sulfinamide, diethylenetriaminepentaacetic acid (DETAPAC) and N-(1-naphthyl)ethylenediaminedihydrogenchloride (NEDD) were purchased from Aldrich (Milwaukee, Wis.). Cytosine-β-D-arabinofuranoside and ferricytochrome c were purchased from Sigma (St. Louis, Mo.). DEA/NO and SPER/NO were synthesized as previously described (Maragos et al., (1991), supra).
Exponentially growing cultures of Chinese hamster V79 fibroblasts were exposed to either HX/XO (final concentration of HX was 0.5 mM; 0.08 units/ml XO were used) for various amounts of time (FIG. 1A) or to various concentrations of hydrogen peroxide for one hour (FIG. 1B). […] Additionally, 1 mM DEA/NO was added to medium in the absence of cells, incubated at 37° C. for 1 hr or 16 hrs, and then added just prior to the addition of hydrogen peroxide to evaluate the effects of DEA/NO which had released NO. After treatment, cell monolayers were rinsed twice with phosphate-buffered saline (PBS), trypsinized, counted and plated in triplicate for macroscopic colony formation. Each dose determination was plated in triplicate and experiments were repeated a minimum of two times. Plates were incubated for 7 days, after which colonies were fixed with methanol/acetic acid (3:1), stained with crystal violet, and counted. Colonies containing more than 50 cells were scored.

[2] = tested on: Chinese hamster V79 lung fibroblasts; experiment: V79 clonogenic survival, hydrogen peroxide cytotoxicity; type: cell-based; conditions: 1 mM; for effect on hydrogen peroxide cytotoxicity: FIG. 2B; for protection from hydrogen peroxide cytotoxicity: decomposition products of DEA/NO, FIG. 1B
Description: Colonies containing more than 50 cells were scored.

[3] = molecular target: T1, XO (Bos taurus, UniProt P80457); experiment: XO activity by superoxide-induced reduction of ferricytochrome c; type: biochemical; conditions: 1 mM, preincubated with HX/XO
T1 sequence (P80457 whole entry): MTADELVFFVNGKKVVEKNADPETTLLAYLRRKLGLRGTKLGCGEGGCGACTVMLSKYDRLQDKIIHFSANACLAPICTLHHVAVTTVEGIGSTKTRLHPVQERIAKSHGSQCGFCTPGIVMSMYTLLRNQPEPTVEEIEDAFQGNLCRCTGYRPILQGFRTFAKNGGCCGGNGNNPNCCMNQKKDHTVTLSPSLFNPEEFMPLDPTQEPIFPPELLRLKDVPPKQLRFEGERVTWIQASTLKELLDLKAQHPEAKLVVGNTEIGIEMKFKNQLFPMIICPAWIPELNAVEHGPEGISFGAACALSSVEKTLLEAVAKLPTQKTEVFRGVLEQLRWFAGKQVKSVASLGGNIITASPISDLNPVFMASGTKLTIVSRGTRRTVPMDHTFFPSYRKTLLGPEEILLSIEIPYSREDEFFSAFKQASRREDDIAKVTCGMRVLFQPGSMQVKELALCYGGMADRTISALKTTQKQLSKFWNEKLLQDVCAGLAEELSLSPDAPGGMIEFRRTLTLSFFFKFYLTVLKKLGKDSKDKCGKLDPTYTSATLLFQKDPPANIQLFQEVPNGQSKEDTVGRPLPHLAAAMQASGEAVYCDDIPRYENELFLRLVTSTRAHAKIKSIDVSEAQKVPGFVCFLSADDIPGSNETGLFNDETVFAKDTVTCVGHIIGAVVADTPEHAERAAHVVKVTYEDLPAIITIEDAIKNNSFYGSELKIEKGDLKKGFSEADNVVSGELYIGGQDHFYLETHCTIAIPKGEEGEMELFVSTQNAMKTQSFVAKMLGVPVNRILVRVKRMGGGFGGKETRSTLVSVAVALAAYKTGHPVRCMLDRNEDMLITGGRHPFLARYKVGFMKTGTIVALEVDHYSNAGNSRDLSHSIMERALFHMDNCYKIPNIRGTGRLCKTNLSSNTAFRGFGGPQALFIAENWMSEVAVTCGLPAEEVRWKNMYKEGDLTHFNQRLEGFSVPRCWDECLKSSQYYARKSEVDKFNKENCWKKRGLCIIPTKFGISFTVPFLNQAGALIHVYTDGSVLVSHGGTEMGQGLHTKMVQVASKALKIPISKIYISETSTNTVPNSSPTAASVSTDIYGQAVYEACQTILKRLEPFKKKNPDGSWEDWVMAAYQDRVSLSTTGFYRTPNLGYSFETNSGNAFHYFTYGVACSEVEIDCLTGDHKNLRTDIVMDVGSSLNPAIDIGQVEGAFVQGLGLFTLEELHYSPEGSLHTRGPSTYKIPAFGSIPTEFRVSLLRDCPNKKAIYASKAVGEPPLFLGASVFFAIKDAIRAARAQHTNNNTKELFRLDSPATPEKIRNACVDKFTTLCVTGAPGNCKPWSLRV
Description: (§1) The activity of XO was monitored in the absence and presence of 1 mM DEA/NO by two different assays. Superoxide-induced reduction of ferricytochrome c to ferrocytochrome c was monitored spectrophotometrically at 550 nm (Fridovich, Handbook of Method for Oxygen Radical Research, pages 213-215 (1985)). The reaction was carried out in a 1 ml volume in aerated phosphate buffer (pH 7.8, 50 mM) containing 50 μM DETAPAC. HX was maintained at 2.5 mM and ferricytochrome c at 20 μM. The reactions were initiated with the addition of XO (final concentration of 0.2 units/ml). The activity of XO in the absence and presence of 1 mM DEA/NO was directly monitored by measuring the production of uric acid spectrophotometrically at 305 nm for 10 min under the same conditions but in the absence of ferricytochrome c. All enzymatic assays and chemical reactions were done at 37° C.

[4] = molecular target: T1, XO; experiment: XO activity by uric acid production at 305 nm; type: biochemical; conditions: 1 mM, preincubated with HX/XO
Description: as §1

[5] = tested on: rat mesenteric venules; experiment: Venular diameter, RBC velocity and wall shear rate after ischemia reperfusion; type: in vivo; conditions: 100 μM in superfusate; for RBC velocity / Venular diameter / Wall Shear Rate: 30 min after reperfusion
Description: (§2) Male Sprague-Dawley rats weighing 200-250 g apiece were maintained on a purified laboratory diet and fasted for 24 hours prior to each experiment. The animals were initially anesthetized with pentobarbital (65 mg/kg body weight) and then a tracheotomy was performed to facilitate breathing during subsequent experimentation. The right carotid artery was cannulated and system arterial pressure was measured with a Statham P23A pressure transducer (Oxnard, Calif.) connected to the carotid artery cannula. Systemic blood pressure and heart rate were continuously recorder with a Grass physiologic recorded (Grass Instruments).
(§3) Rats were placed in a supine position on an adjustable plexiglass microscope stage and the mesentery was prepared for microscopic observation as described previously (Asako et al., Gastroenterology, 103, 146-152 (1992); Kurose et al., Circ. Res., in press (1993)). Briefly, the mesentery was draped over a non-fluorescent coverslip that allowed for observation of a 2 cm^2 segment of tissue. The exposed bowel wall was covered with Saran Wrap (Dow Chemical Co.) and the mesentery was superfused with bicarbonate-buffered saline (pH 7.4, 37° C.) that was bubbled with a mixture of 5% CO2 and […].
(§4) An inverted microscope (TMD-25, Diaphoto, Nikon, Tokyo, Japan) with a 40x objective lens (Fluor, Nikon) was used to observe the mesenteric microcirculation. The mesentery was transilluminated with a 12 V-100 W direct current-stabilized light source. A video camera (VK-C150, Hitachi, Ibaragi, Japan) mounted on the microscope projected the image onto a color monitor (PVM-2030, Sony, Tokyo, Japan) and the images were recorded using a videocassette record (NV8950, Panasonic, Tokyo, Japan). A video time-date generator (WJ810, Panasonic) projected the time, date and stopwatch function onto the monitor.
(§5) Single unbranched venules with diameters ranging between 25 and 35 μm and length greater than 150 μm were selected for study. Venular diameter (DV) was measured either on- or off-line using a video caliper (Microcirculation Research Institute, Texas A&M University, College Station, Tex.). Red blood cell centerline velocity (VRBC) was measured in venules using an optical Dopper velocimeter (Microcirculation Research Institute, Texas A&M University, College Station, Tex.). The velocimeter was calibrated against a rotating glass disk coated with red blood cells. Venular blood flow was calculated from the product of mean red blood cell velocity (Vmean =centerline velocity/1.6; Davis, Microvasc. Res., 34, 223-230 (1987)) and microvascular cross-sectional area, assuming cylindrical geometry. Wall shear rate (γ) was calculated based on the Newtonian definition γ=8(Vmean /D).
After all parameters measured on-line were in a steady state, images from the mesenteric preparation were recorded on videotape for 10 min. […] The mesentery was made ischemic for zero (sham ischemia) or 20 min. After the ischemic period, the ligation was gently removed. In some experiments, either sodium nitroprusside (SNP, 100 μM, Sigma Chemical), spermine-NO (SpNO, 100 μM), SIN-1 (100 μM), spermine (SP, 100 μM, Sigma Chemical), or NG-nitro-L-arginine methyl ester (L-NAME, 100 μM, Sigma Chemical) was added to the superfusate and the same protocol was employed. Spermine-NO and SIN-1, which are NO donors, were obtained from the National Institutes of Health, Bethesda, Md. […]

[6] = tested on: leukocytes; experiment: Leukocyte adherence and emigration after ischemia reperfusion (mesenteric venules); type: in vivo, rat; conditions: 20 min ischemia, 100 μM; for change in leukocyte adherence: FIG. 4A; for effect on emigrated leukocytes: 30 min reperfusion, in words
Description: as §2, §3, §4, §5
The number of adherent leukocytes was determined off-line during playback of videotape images. A leukocyte was considered to be adherent to venular endothelium if it remained stationary for a period equal to or greater than 30 seconds (Granger et al., Am. J. Physiol., 257, G683-G688 (1989)). Adherent cells were expressed as the number per 100 μm length of venule. The number of emigrated leukocytes was also determined off-line during playback of videotape images. Any interstitial leukocytes present in the mesentery at the onset of the experiment were subtracted from the total number of leukocytes that accumulated during the course of the experiment. Leukocyte emigration was expressed as the number per field of view surrounding the venule. Platelet-leukocyte aggregates, which were visible within postcapillary venules, were quantitated and expressed as the number of aggregates crossing a fixed point within the venule over a 5 min period. Mast cells in the microvascular beds of the rat mesenteries were visualized by using 0.1% toluidine blue. The number of normal and degranulated mast cells was determined and the percentage of degranulated mast cells was calculated.

[7] = tested on: mesenteric venules; experiment: Albumin leakage across mesenteric venules after ischemia reperfusion; type: in vivo, rat; conditions: 100 μM, FIG. 4C; for effect on ischemia reperfusion induced albumin leakage: in words
Description: as §2, §3, §4
as §5, with “The velocimeter was calibrated against a rotating glass disk coated with red blood cells.” left out
After all parameters measured on-line were in a steady state, images from the mesenteric preparation were recorded on videotape for 10 min. […]

[8] = tested on: platelet-leukocyte aggregates; experiment: Platelet-leukocyte aggregates after ischemia reperfusion; type: in vivo, rat; conditions: 20 min ischemia, 30 min reperfusion; 100 μM; FIG. 6
Description: as §2, with “Instruments). […]” for “Instruments).”
(§6) An inverted microscope (TMD-25, Diaphoto, Nikon, Tokyo, Japan) with a 40x objective lens (Fluor, Nikon) was used to observe the mesenteric microcirculation. […] A video camera (VK-C150, Hitachi, Ibaragi, Japan) mounted on the microscope projected the image onto a color monitor (PVM-2030, Sony, Tokyo, Japan) and the images were recorded using a videocassette record (NV8950, Panasonic, Tokyo, Japan). […]
Single unbranched venules with diameters ranging between 25 and 35 μm and length greater than 150 μm were selected for study. Venular diameter (DV) was measured either on- or off-line using a video caliper (Microcirculation Research Institute, Texas A&M University, College Station, Tex.). […] Wall shear rate (γ) was calculated based on the Newtonian definition γ=8(Vmean /D). […]

[9] = tested on: mast cells; experiment: Degranulation of microvascular mast cells after ischemia reperfusion; type: in vivo, rat; conditions: 20 min ischemia, 30 min reperfusion; 100 μM; FIG. 7
Description: as §2, §3, §6
as §5, with “The velocimeter was calibrated against a rotating glass disk coated with red blood cells.” left out
The number of adherent leukocytes was determined off-line during playback of videotape images. […] Adherent cells were expressed as the number per 100 μm length of venule. The number of emigrated leukocytes was also determined off-line during playback of videotape images. […] Leukocyte emigration was expressed as the number per field of view surrounding the venule. […]

[10] = tested on: intestinal mucosa; experiment: Intestinal blood to lumen 51Cr-EDTA clearance (mucosal permeability) in cat small intestine transplant; type: in vivo, cats
[11] = tested on: small intestine; experiment: Water absorption in cat small intestine transplant; type: in vivo, cats; conditions: at 90 and 120 min; 0.5 mmol; FIG. 10
[12] = tested on: microvasculature; experiment: Capillary pressure and vascular resistance in cat small intestine transplant; type: in vivo, cats; conditions: FIG. 13
[13] = tested on: Chinese hamster V79 lung fibroblasts; conditions: Mitchell et al.; cited from earlier work

CCNCC [diethylamine]
protection from HX/XO-induced cytotoxicity [1]: did not protect | effect on hydrogen peroxide cytotoxicity [2]: had no effect on hydrogen peroxide cytotoxicity | protection from hydrogen peroxide cytotoxicity [2]: did not protect | inhibition of XO activity, production of superoxide (cytochrome c reduction) [3]: did not inhibit the activity of XO | inhibition of XO activity, uric acid production [4]: did not inhibit the activity of XO

O=NO [nitrite]
protection from HX/XO-induced cytotoxicity [1]: did not protect | effect on hydrogen peroxide cytotoxicity [2]: potentiated hydrogen peroxide cytotoxicity | protection from hydrogen peroxide cytotoxicity [2]: did not protect | inhibition of XO activity, production of superoxide (cytochrome c reduction) [3]: did not inhibit the activity of XO | inhibition of XO activity, uric acid production [4]: did not inhibit the activity of XO

[NH-]c1c[n+](N2CCOCC2)no1 [SIN-1]
reversal of decrease in RBC velocity after reperfusion ([5]; in words): reversed the decreases | reversal of decrease in wall shear rate after reperfusion ([5]; in words): reversed the decreases | RBC velocity [5]: 2.64 ± 0.23 mm/sec | Venular diameter [5]: 29.0 ± 1.1 μm | Wall Shear Rate [5]: 457 ± 38 L/s | reduction of number of emigrated leukocytes ([6]; 10 and 30 min reperfusion, FIG. 4B): 68-75% | attenuation of albumin leakage ([7]; 10 min and 30 min after reperfusion): 60-71% | platelet-leukocyte aggregate formation [8]: reduced | degranulation of microvascular mast cells [9]: significantly inhibited | mucosal permeability (51Cr-EDTA clearance) ([10]; 6-hr hypothermic ischemia, 120 min reperfusion, FIG. 9): decreased | 51Cr-EDTA clearance ([10]; at 60 and 90 min, 0.5 mmol luminal perfusate): statistically significant decrease | water absorption [11]: significantly increased | capillary pressure [12]: No significant changes

NCCCNCCCCNCCCN [SP, spermine]
RBC velocity [5]: 2.32 ± 0.19 mm/sec | Venular diameter [5]: 29.8 ± 1.4 μm | Wall Shear Rate [5]: 391 ± 28 L/s | change in leukocyte adherence ([6]; 10 and 30 min reperfusion): no significant changes | effect on emigrated leukocytes ([6]; FIG. 4B): no effect | effect on ischemia reperfusion induced albumin leakage [7]: no effect | degranulation of microvascular mast cells [9]: had no effect

superoxide dismutase
HX/XO induced cytotoxicity with added enzyme [13]: not treated

COC(=O)[C@@H](N)CCCNC(=N)N[N+](=O)[O-] [L-NAME, NG-nitro-L-arginine methyl ester]
RBC velocity [5]: 1.84 ± 0.09 mm/sec | Venular diameter [5]: 29.2 ± 1.5 μm | Wall Shear Rate [5]: 316 ± 10 L/s | change in leukocyte adherence ([6]; 10 and 30 min reperfusion): no significant changes | effect on emigrated leukocytes ([6]; FIG. 4B): no effect | effect on ischemia reperfusion induced albumin leakage [7]: no effect | degranulation of microvascular mast cells [9]: had no effect

B1: catalase: catalase (protein, UniProt P04040 2-527, looked up)
Catalase: ADSRDPASDQMQHWKEQRAAQKADVLTTGAGNPVGDKLNVITVGPRGPLLVQDVVFTDEMAHFDRERIPERVVHAKGAGAFGYFEVTHDITKYSKAKVFEHIGKKTPIAVRFSTVAGESGSADTVRDPRGFAVKFYTEDGNWDLVGNNTPIFFIRDPILFPSFIHSQKRNPQTHLKDPDMVWDFWSLRPESLHQVSFLFSDRGIPDGHRHMNGYGSHTFKLVNANGEAVYCKFHYKTDQGIKNLSVEDAARLSQEDPDYGIRDLFNAIATGKYPSWTFYIQVMTFNQAETFPFNPFDLTKVWPHKDYPLIPVGKLVLNRNPVNYFAEVEQIAFDPSNMPPGIEASPDKMLQGRLFAYPDTHRHRLGPNYLHIPVNCPYRARVANYQRDGPMCMQDNQGGAPNYYPNSFGAPEQQPSALEHSIQYSGEVRRFNTANDDNVTQVRAFYVNVLNEEQRKRLCENIAGHLKDAQIFIQKKAVKNFTEVHPDYGSHIQALLDKYNAEKPKNAIHTFVQSGSHLAAREKANL
HX/XO induced cytotoxicity with added enzyme [13]: treated the cytotoxicity
